According to patent publication US9802918B2, “Pyridineamine compounds useful as Pim kinase inhibitors” (Incyte Corporation, priority 2015, dated 2017):

Assays:
Type in all cases: biochemical
Pim-3 = Pim-3 (Homo sapiens (Human), UniProt Q86V86); assay: Pim-3 kinase assay; details: 1 mM ATP; read-out: Pim3 IC50
Procedure: Pim-1 and Pim-3 kinase assays-20 μL reactions were run in white 384 well polystyrene plates dotted with 0.8 μL compound/DMSO in the assay buffer (50 mM Tris, pH 7.5, 0.01% Tween-20, 5 mM mgCl2, 0.01% BSA, 5 mM DTT), containing […] Biotin-labeled BAD peptide substrate (AnaSpec 62269), 1 mM ATP, and 2.5 pM (Pim-1, Invitrogen PV3503) or 1.25 pM (Pim-3, Millipore 14-738) enzyme for 1 h at 25° C. Reactions were stopped by addition of 10 μL STOP Buffer (150 mM Tris, pH=7.5, 150 mM NaCl, 75 mM EDTA, 0.01% Tween-20, 0.3% BSA,) supplemented with Phospho-Bad (Ser112) Antibody (Cell Signaling 9291) diluted 666-fold, and Streptavidin donor beads (PerkinElmer 6760002) along with Protein-A acceptor beads (PerkinElmer 6760137) at 15 μg/mL each. Supplementation of the STOP buffer with beads and stopping the reactions were done under reduced light. Prior to the stopping reactions STOP buffer with beads was preincubated for 1 h in the dark at room temperature. After stopping the reactions, plates were incubated for 1 h in the dark at room temperature before reading on a PHERAstar FS plate reader (BMG Labtech) under reduced light.

Pim-2 = Pim-2 (Homo sapiens (Human), UniProt Q9P1W9); assay: Pim-2 kinase assay; details: 1 mM ATP; read-out: Pim2 IC50
Sequence of Pim-2 (Q9P1W9 whole entry): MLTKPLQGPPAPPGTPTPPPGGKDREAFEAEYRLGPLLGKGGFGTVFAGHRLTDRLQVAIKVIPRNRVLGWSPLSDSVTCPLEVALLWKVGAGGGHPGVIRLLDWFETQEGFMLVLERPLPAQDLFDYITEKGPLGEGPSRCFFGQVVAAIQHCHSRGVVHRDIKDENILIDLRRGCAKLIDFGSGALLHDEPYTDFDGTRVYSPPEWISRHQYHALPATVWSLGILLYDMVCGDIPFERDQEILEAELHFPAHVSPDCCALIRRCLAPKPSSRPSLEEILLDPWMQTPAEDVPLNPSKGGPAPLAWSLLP
Procedure: Pim-2 kinase assay—20 μL reactions were run in white 384 well polystyrene plates dotted with 0.8 μL compound/DMSO in the assay buffer (50 mM Tris, pH 7.5, 0.01% Tween-20, 5 mM mgCl2, 0.01% BSA, 5 mM DTT), containing […] Fluorescein-labeled CREBtide peptide substrate (Invitrogen PV3508), 1 mM ATP, and 1 nM enzyme (Invitrogen PV3649) for 2 h at 25° C. Reactions were stopped by addition of 10 μL TR-FRET Dilution Buffer (Invitrogen PV3574) with 30 mM EDTA and 1.5 nM LanthaScreen Tb-CREB pSer133 antibody (Invitrogen PV3566). After 30 min. incubation at room temperature, plates were read on a PHERAstar FS plate reader (BMG Labtech).

Pim-1 = Pim-1 (Homo sapiens (Human), UniProt P11309); assay: Pim-1 kinase assay; details: 1 mM ATP; read-out: Pim1 IC50
Sequence of Pim-1 (P11309 whole entry): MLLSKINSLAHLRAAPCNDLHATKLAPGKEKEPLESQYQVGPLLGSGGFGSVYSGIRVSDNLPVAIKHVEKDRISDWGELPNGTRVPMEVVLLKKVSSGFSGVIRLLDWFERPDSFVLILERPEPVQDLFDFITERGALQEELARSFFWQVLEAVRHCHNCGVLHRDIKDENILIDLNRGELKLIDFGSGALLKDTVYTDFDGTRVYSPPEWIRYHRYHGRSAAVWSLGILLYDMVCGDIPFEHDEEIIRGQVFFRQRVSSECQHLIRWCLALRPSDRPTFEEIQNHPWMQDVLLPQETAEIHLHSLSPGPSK
Procedure: Supplementation of the STOP buffer with beads and stopping the reactions were done under reduced light. Prior to the stopping reactions STOP buffer with beads was preincubated for 1 h in the dark at room temperature. After stopping the reactions, plates were incubated for 1 h in the dark at room temperature before reading on a PHERAstar FS plate reader (BMG Labtech) under reduced light.

| Structure (SMILES) | IC50 (Pim-3) | IC50 (Pim-2) | IC50 (Pim-1) |
| --- | --- | --- | --- |
| C[C@H]1CN(c2ccncc2NCc2ccc(F)c(-c3c(F)cc4ncccc4c3F)n2)C[C@@H](N)[C@@H]1O [Example 37, (3R,4R,5S)-3-Amino-1-[3-({[6-(5,7-difluoroquinolin-6-yl)-5-fluoropyridin-2-yl]methyl}amino)pyridin-4-yl]-5-methylpiperidin-4-ol] | ≤ 10 nM | 100 to 1000 nM | < 10 nM |
| C[C@@H]1C[C@H](N)CN(c2ccncc2NCc2ccc(F)c(-c3c(F)cc4ncccc4c3F)n2)C1 [Example 38, 4-[(3S,5R)-3-Amino-5-methylpiperidin-1-yl]-N-{[6-(5,7-difluoroquinolin-6-yl)-5-fluoropyridin-2-yl]methyl}pyridin-3-amine] | ≤ 10 nM | 100 to 1000 nM | < 10 nM |
| C[C@H]1CN(c2ccncc2NCc2ccc(F)c(-c3c(F)cc(CN4CCOCC4)cc3F)n2)C[C@@H](N)[C@@H]1O [Example 39, (3R,4R,5S)-3-Amino-1-{3-[({6-[2,6-difluoro-4-(morpholin-4-ylmethyl)phenyl]-5-fluoropyridin-2-yl}methyl)amino]pyridin-4-yl}-5-methylpiperidin-4-ol] | ≤ 10 nM | ≤ 100 nM | < 10 nM |
| CNCc1cc(F)c(-c2nc(CNc3cnccc3N3C[C@@H](N)[C@H](O)[C@@H](C)C3)ccc2F)c(F)c1 [Example 40, (3R,4R,5S)-3-Amino-1-(3-(((6-(2,6-difluoro-4-((methylamino)methyl)phenyl)-5-fluoropyridin-2-yl)methyl)amino)pyridin-4-yl)-5-methylpiperidin-4-ol] | ≤ 10 nM | 100 to 1000 nM | < 10 nM |
| C[C@H]1CN(c2ccncc2NCc2ccc(F)c(-c3c(F)cc(CN4CCC4)cc3F)n2)C[C@@H](N)[C@@H]1O [Example 41, (3R,4R,5S)-3-Amino-1-(3-(((6-(4-(azetidin-1-ylmethyl)-2,6-difluorophenyl)-5-fluoropyridin-2-yl)methyl)amino)pyridin-4-yl)-5-methylpiperidin-4-ol] | ≤ 10 nM | 100 to 1000 nM | < 10 nM |
| C[C@H]1CN(c2ccncc2NCc2ccc(F)c(-c3c(F)cc(CN4CC[C@@H](O)C4)cc3F)n2)C[C@@H](N)[C@@H]1O [Example 42, (3R,4R,5S)-3-Amino-1-(3-(((6-(2,6-difluoro-4-(((R)-3-hydroxypyrrolidin-1-yl)methyl)phenyl)-5-fluoropyridin-2-yl)methyl)amino)pyridin-4-yl)-5-methylpiperidin-4-ol] | ≤ 10 nM | ≤ 100 nM | < 10 nM |
| C[C@H]1CN(c2ccncc2NCc2ccc(F)c(-c3c(F)cc(CN4CC[C@H](O)C4)cc3F)n2)C[C@@H](N)[C@@H]1O [Example 43, (3R,4R,5S)-3-Amino-1-(3-(((6-(2,6-difluoro-4-(((S)-3-hydroxypyrrolidin-1-yl)methyl)phenyl)-5-fluoropyridin-2-yl)methyl)amino)pyridin-4-yl)-5-methylpiperidin-4-ol] | ≤ 10 nM | ≤ 100 nM | < 10 nM |
| C[C@H]1CN(c2ccncc2NCc2ccc(F)c(-c3c(F)cc(CN4CC[C@@H](C#N)C4)cc3F)n2)C[C@@H](N)[C@@H]1O [Example 44, (R)-1-(4-(6-((4-((3R,4R,5S)-3-Amino-4-hydroxy-5-methylpiperidin-1-yl)pyridin-3-ylamino)methyl)-3-fluoropyridin-2-yl)-3,5-difluorobenzyl)pyrrolidine-3-carbonitrile] | ≤ 10 nM | ≤ 100 nM | < 10 nM |
| C[C@H]1CN(c2ccncc2NCc2ccc(F)c(-c3c(F)cc(CN4CC[C@H](C#N)C4)cc3F)n2)C[C@@H](N)[C@@H]1O [Example 45, (S)-1-(4-(6-((4-((3R,4R,5S)-3-Amino-4-hydroxy-5-methylpiperidin-1-yl)pyridin-3-ylamino)methyl)-3-fluoropyridin-2-yl)-3,5-difluorobenzyl)pyrrolidine-3-carbonitrile] | ≤ 10 nM | ≤ 100 nM | < 10 nM |
| C[C@H]1CN(c2ccncc2NCc2ccc(F)c(-c3c(F)cc(CN4CC[C@@H](F)C4)cc3F)n2)C[C@@H](N)[C@@H]1O [Example 46, (3R,4R,5S)-3-amino-1-(3-(((6-(2,6-difluoro-4-(((R)-3-fluoropyrrolidin-1-yl)methyl)phenyl)-5-fluoropyridin-2-yl)methyl)amino)pyridin-4-yl)-5-methylpiperidin-4-ol] | ≤ 10 nM | ≤ 100 nM | < 10 nM |
| C[C@H]1CN(c2ccncc2NCc2ccc(F)c(-c3c(F)cc(CN4CC[C@H](F)C4)cc3F)n2)C[C@@H](N)[C@@H]1O [Example 47, (3R,4R,5S)-3-amino-1-(3-(((6-(2,6-difluoro-4-(((S)-3-fluoropyrrolidin-1-yl)methyl)phenyl)-5-fluoropyridin-2-yl)methyl)amino)pyridin-4-yl)-5-methylpiperidin-4-ol] | ≤ 10 nM | ≤ 100 nM | < 10 nM |
| C[C@@H]1C[C@H](N)CN(c2ccncc2NCc2ccc(F)c(-c3c(F)cc(CN4CCOCC4)cc3F)n2)C1 [Example 48, 4-[(3S,5R)-3-Amino-5-methylpiperidin-1-yl]-N-({6-[2,6-difluoro-4-(morpholin-4-ylmethyl)phenyl]-5-fluoropyridin-2-yl}methyl)pyridin-3-amine] | ≤ 10 nM | ≤ 100 nM | < 10 nM |
| CNCc1cc(F)c(-c2nc(CNc3cnccc3N3C[C@H](C)C[C@H](N)C3)ccc2F)c(F)c1 [Example 49, 4-((3S,5R)-3-Amino-5-methylpiperidin-1-yl)-N-((6-(2,6-difluoro-4-((methylamino)methyl)phenyl)-5-fluoropyridin-2-yl)methyl)pyridin-3-amine] | ≤ 10 nM | 100 to 1000 nM | < 10 nM |
| C[C@@H]1C[C@H](N)CN(c2ccncc2NCc2ccc(F)c(-c3c(F)cc(CN4CCC4)cc3F)n2)C1 [Example 50, 4-((3S,5R)-3-Amino-5-methylpiperidin-1-yl)-N-((6-(4-(azetidin-1-ylmethyl)-2,6-difluorophenyl)-5-fluoropyridin-2-yl)methyl)pyridin-3-amine] | ≤ 10 nM | 100 to 1000 nM | < 10 nM |
| C[C@@H]1C[C@H](N)CN(c2ccncc2NCc2ccc(F)c(-c3c(F)cc(CN4CC[C@@H](O)C4)cc3F)n2)C1 [Example 51, (R)-1-(4-(6-((4-((3S,5R)-3-Amino-5-methylpiperidin-1-yl)pyridin-3-ylamino)methyl)-3-fluoropyridin-2-yl)-3,5-difluorobenzyl)pyrrolidin-3-ol] | ≤ 10 nM | ≤ 100 nM | < 10 nM |
| C[C@@H]1C[C@H](N)CN(c2ccncc2NCc2ccc(F)c(-c3c(F)cc(CN4CC[C@H](O)C4)cc3F)n2)C1 [Example 52, (S)-1-(4-(6-((4-((3S,5R)-3-Amino-5-methylpiperidin-1-yl)pyridin-3-ylamino)methyl)-3-fluoropyridin-2-yl)-3,5-difluorobenzyl)pyrrolidin-3-ol] | ≤ 10 nM | ≤ 100 nM | < 10 nM |
| C[C@@H]1C[C@H](N)CN(c2ccncc2NCc2ccc(F)c(-c3c(F)cc(CN4CC[C@@H](C#N)C4)cc3F)n2)C1 [Example 53, (R)-1-(4-(6-((4-((3S,5R)-3-amino-5-methylpiperidin-1-yl)pyridin-3-ylamino)methyl)-3-fluoropyridin-2-yl)-3,5-difluorobenzyl)pyrrolidine-3-carbonitrile] | ≤ 10 nM | ≤ 100 nM | < 10 nM |
| C[C@@H]1C[C@H](N)CN(c2ccncc2NCc2ccc(F)c(-c3c(F)cc(CN4CC[C@H](C#N)C4)cc3F)n2)C1 [Example 54, (S)-1-(4-(6-((4-((3S,5R)-3-amino-5-methylpiperidin-1-yl)pyridin-3-ylamino)methyl)-3-fluoropyridin-2-yl)-3,5-difluorobenzyl)pyrrolidine-3-carbonitrile] | ≤ 10 nM | ≤ 100 nM | < 10 nM |
| C[C@@H]1C[C@H](N)CN(c2ccncc2NCc2ccc(F)c(-c3c(F)cc(CN4CC[C@@H](F)C4)cc3F)n2)C1 [Example 55, 4-((3S,5R)-3-amino-5-methylpiperidin-1-yl)-N-((6-(2,6-difluoro-4-(((R)-3-fluoropyrrolidin-1-yl)methyl)phenyl)-5-fluoropyridin-2-yl)methyl)pyridin-3-amine] | ≤ 10 nM | ≤ 100 nM | < 10 nM |
